Data on 5 molecules can be found in article PMC10386886, “First-in-class multifunctional TYMS nonclassical antifolate inhibitor with potent in vivo activity that prolongs survival” (JCI Insight, 2023).

The target of experiment [1] is T1, purified human TYMS (Homo sapiens, UniProt P04818).
T1 construct: 6xHis (N); made in house; host or cells: E. coli BL21 (DE3), vector pQE80L-hTYMS
Kind of experiment: Competitive drug displacement assay (tritium TYMS assay). The experiment is classed as biochemical. Conditions: for dUMP conversion with increasing 5,10-mTHF concentration / dUMP conversion with increasing dUMP concentration: TS preincubated with drug, Figure 7. As for the experimental part: For these experiments the TYMS protein was first incubated with each drug, and the reaction was then initiated by addition of 5,10-mTHF and dUMP using different concentrations of either 5,10-mTHF or dUMP to change the substrate/drug ratio. If there was competition between one of the substrates and the drug for the same binding site, then increasing the substrate concentration would displace more of the prebound drug and shift the equilibrium toward the enzyme/substrate complex, thus allowing the conversion of dUMP to proceed (Figure 7A). […]
all components including 2 µg TYMS protein to show the range of the assay, the background signal, and the dependence on 5,10-mTHF (Supplemental Figure 2C). To determine the signal from the [5-3H]dUMP tracer used in each reaction the same amount of the dUMP substrate with the [5-3H]dUMP tracer accounting for 0.06% of the final dUMP concentration was added directly to 5 mL of ultima gold liquid scintillation cocktail (Supplemental Figure 2C).
All reactions were performed in biological duplicate and technical duplicate. Results were analyzed using GraphPad Prism 9.
Competitive drug displacement assay
The tritium based TYMS catalytic activity assay was modified to determine if TYMS inhibition from 19-S, 19-S5, and 19-S7 was the result of competitive binding with either the dUMP substrate or the 5,10-mTHF cofactor. The competitive drug displacement assay utilized the standard reaction conditions for the tritium-based TYMS catalytic activity assay including 40 µM dUMP (Sigma Aldrich, Cat # D3876) with the [5- 3H]dUMP tracer (ViTrax, VT122) accounting for 0.06% of the final dUMP concentration and 100 µM 5,10- methylene tetrahydrofolate (defined as 1x dUMP and 1x 5,10-mTHF). Concentrations of total dUMP and 5,10- mTHF were then changed relative to these 1x concentrations to concisely indicate the changes in either the substrate or cofactor concentration. The highest 5x concentration of 5,10 - […]
5x concentration of total dUMP was not limited by solubility, although increases were performed in the same increments as 5,10-mTHF for comparison and 0.06% of the [5-3H]dUMP tracer was maintained at all concentrations. The remaining components in each 200 µL reaction were consistent in all reactions and included 2 µg of purified human TYMS in 50 mM KH2PO4 (Sigma Aldrich, Cat # P0662) and 100 mM β- mercaptoethanol (Sigma Aldrich, Cat # M7522). Control antifolate inhibitor PEM (Sigma Aldrich, Cat # PHR1596) was performed for reference of a TYMS specific classical antifolate and to […]
Human TYMS and DHFR preparation
Human Thymidylate Synthase (hTYMS) and human Dihydrofolate Reductase (hDHFR) were both expressed in BL21 (DE3) E. coli cells, using a standard BL21 transformation protocol, with the expression vector pQE80L-hTYMS (gift from Maria Paola Costi, University of Modena and Reggio Emilio, Italy) and pET100/D- TOPO (Invitrogen, Cat # K10001), respectively. Both vectors contained an N-terminal 6x Histidine tag attached to either hTYMS or hDHFR. After bacterial transformation, cells

The test system of experiment [2] is MIA PaCa-2 cells. The experiment is described as follows: MTS viability assay, MIA PaCa-2. The experiment is classed as cell-based. Conditions: Homo sapiens, 72-hour drug treatment, Figure 6E, highest concentration 350 μM. As to the method:
Cells were harvested after 72 hours, and cell pellets were stored at –80°C. […] After 72 hours, cell viability was assessed by reduction of MTS using Cell Titer 96 R Aqueous One Solution Cell Proliferation Assay Kit (Promega, catalog G8081), following manufacturer’s recommendations. […] was measured on a SpectraMax M3 (Molecular Devices). Data were plotted in GraphPad Prism 9 to determine GI50 concentration. Chemical synthesis details, including characterization of each compound, can be found in the Supplemental section associated with this publication.

In experiment [3] the target is T2, DHFR (Homo sapiens, UniProt P00374).
T2 construct: purchased Sigma D6566 (kit CS0340)
T2 sequence (P00374 1-187): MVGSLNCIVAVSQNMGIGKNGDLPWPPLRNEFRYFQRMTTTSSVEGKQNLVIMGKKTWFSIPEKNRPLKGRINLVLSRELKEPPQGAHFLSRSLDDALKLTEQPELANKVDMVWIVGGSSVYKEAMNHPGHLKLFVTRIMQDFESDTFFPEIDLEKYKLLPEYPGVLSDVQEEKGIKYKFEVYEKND
Kind of experiment: Absorbance-based DHFR activity assay. It counts as biochemical.
Method: DHFR assay kit (Sigma Aldrich, Cat # CS0340) as described by the manufacturer. 0.1-unit DHFR
analogues or control drugs, 6 μL NADPH Cat # N6505 solution and 5 μl of dihydrofolic acid (DHFR
substrate) (Sigma, Cat # D7006). The reaction was then read on the spectrophotometer at 340 nm at
22 °C every 15 seconds for 2.5 minutes.

The target of experiment [4] is T1, purified human TYMS. Kind of experiment: Tritium-based TYMS catalytic activity assay. The experiment is classed as biochemical. The note with it: for TS activity, comparison at decreasing drug concentrations: Figure 6C; for TS activity (conversion of dUMP) in the presence of drug: drug 250 μM, 10 μg/mL TS protein, Figure 1B. As to the method:
To determine the inhibition of TYMS activity, we utilized a tritium-based TYMS catalytic assay (Figure 1A) to quantify the conversion of dUMP, which is proportional to TYMS activity ([33]). The assay was based on a previously published protocol ([33]) and modified to determine the amount of purified human TYMS (hTYMS) to be used in the conversion of dUMP to dTMP. […]
Tritium based TYMS catalytic activity assay
The catalytic activity of TYMS was determined by measuring the release of [3H] from [5-3H]dUMP (ViTrax, Cat # VT122) resulting from the conversion of dUMP to dTMP as previously described (2, 3).
The reaction conditions were optimized to determine the amount of TYMS protein needed to establish […]
reactions performed without TYMS or without the 5,10-methylene tetrahydrofolate (5,10-mTHF) cofactor (Supplemental Figure 2 and Supplemental methods). Reactions were performed in 50 mM KH2PO4 (Sigma Aldrich, Cat # P0662) at pH 7.2 using 2 µg of purified human TYMS. Reactions were performed in a final volume of 200 µL with 100 mM β-mercaptoethanol (Sigma Aldrich, Cat # M7522), 40 µM dUMP (Sigma Aldrich, Cat # D3876), 100 µM 5,10-mTHF, and the [5-3H]dUMP tracer (ViTrax, Cat # VT122) accounting for 0.06% of the final dUMP concentration in the reaction. The 5,10-mTHF used in the reaction was separately generated from tetrahydrofolic acid (Sigma Aldrich, Cat # T3125) by dissolving the solid in 10 mM KH2PO4 with 143 mM β-mercaptoethanol (1:100 from 14.3 M pure liquid), and 6.35 mM formaldehyde (Sigma Aldrich, Cat # 47608) to yield a 100 mM stock solution of 5,10- mTHF. Reactions were initiated by the addition of the dUMP substrate and 5,10-mTHF cofactor, then incubated at 37 °C for 30 minutes. […]
before the reaction was initiated by the addition of the dUMP substrate and 5,10-mTHF cofactor.
Reactions were terminated by the addition of 100 µL of ice-cold 20% trichloroacetic acid (Sigma Aldrich, Cat # T6399), then excess [5-3H]dUMP was removed by the addition of 200 µL of an albumin-coated activated charcoal solution. The albumin-coated activated charcoal solution was prepared by mixing 10 g of acid- washed activated dextran coated charcoal (Sigma Aldrich, Cat # C6241) with 2.5 g of bovine albumin (Sigma Aldrich, Cat # A1933) in 100 mL of H2O. The suspension was incubated at room temperature for 30 minutes and then centrifuged for 30 minutes at 10,000 x g. Then 150 µL of the supernatant was collected and added to 5 mL of ultima gold liquid scintillation cocktail (Perkin Elmer, Cat # 6013326, lot: 77-19085), and scintillation measurements were perform using a liquid scintillation counter (Beckman Coulter LS6500) to determine [3H]H2O levels in each sample. For all experiments, positive control reactions were performed with no drug representing 100% TYMS activity, and negative

Like-named read-outs stand apart in the source and are kept apart here.

T1 sequence (P04818 whole entry): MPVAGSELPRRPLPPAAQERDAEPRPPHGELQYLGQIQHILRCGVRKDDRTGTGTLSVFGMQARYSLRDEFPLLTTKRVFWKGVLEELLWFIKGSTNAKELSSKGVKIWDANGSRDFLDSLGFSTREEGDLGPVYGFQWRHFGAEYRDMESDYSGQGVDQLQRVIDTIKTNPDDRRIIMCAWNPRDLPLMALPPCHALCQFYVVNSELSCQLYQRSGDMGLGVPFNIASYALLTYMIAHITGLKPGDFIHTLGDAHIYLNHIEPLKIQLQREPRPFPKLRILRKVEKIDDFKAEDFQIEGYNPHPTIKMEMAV

Consider `CCc1nc(N)nc(N)c1-c1ccc(N(C)Cc2ccc(OC)cc2)c([N+](=O)[O-])c1` [Compound 19-S5], for which, in experiment [1], the “Mechanism of TYMS inhibition” value was “blocking the folate-binding site”, the “dUMP conversion with increasing 5,10-mTHF concentration” value is on record as “increased the amount of dUMP conversion” and the “dUMP conversion with increasing dUMP concentration” value is listed as “the amount of dUMP conversion did not increase”. In experiment [2], the concentration for 50% growth inhibition (GI50) was 0.28 µM. The “DHFR activity, comparison at reduced drug concentrations” value in experiment [3] (Figure 6D) was “potent TYMS and DHFR inhibition”. Besides, the “TS activity, screen of 19-S series analogs” value in experiment [4] (250 μM, Figure 6A) is “inhibited TYMS activity”. Also, the “TS activity, comparison at decreasing drug concentrations” value in experiment [4] is “greater TYMS inhibition than both MTX and PEM”.
For `Nc1nc2[nH]cc(CCc3ccc(C(=O)N[C@@H](CCC(=O)O)C(=O)O)cc3)c2c(=O)[nH]1` [PEM, pemetrexed], in experiment [1], the “dUMP conversion with increasing 5,10-mTHF concentration” value is “increased the dUMP conversion” and the “dUMP conversion with increasing dUMP concentration” value is “did not increase dUMP conversion”. For the same molecule, the “DHFR activity, comparison at reduced drug concentrations” value in experiment [3] is recorded as “less effective against DHFR”. Besides, in experiment [4], the “TS activity, comparison at decreasing drug concentrations” value is recorded as “greater TYMS inhibition than the MTX antifolate”.
In the case of `O=c1[nH]c(=O)n([C@H]2C[C@H](O)[C@@H](CO)O2)cc1F` [FdUrd, 5-fluoro-2′-deoxyuridine], the “TS activity (conversion of dUMP) in the presence of drug” value in experiment [4] is “reduced conversion of dUMP”.
The same measure, in the same setting: to `O=c1[nH]c(=O)n([C@@H]2O[C@H](CO)[C@@H](O)[C@H]2O)cc1F` [FUrd, 5-fluorouridine] belongs “inactive”.
Consider `CCc1nc(N)nc(N)c1-c1ccc(NCCOCCOCCN)c([N+](=O)[O-])c1` [Compound 19-S10], for which the “DHFR activity, screen of 19-S series analogs” value in experiment [3] (1 μM, Figure 6B) is reported as “exception”.
